# Laboratory results from US7582645B2, “Pyrimidine derivatives for treatment of hyperproliferative disorders” (Bayer Pharmaceuticals Corporation, priority 2003, dated 2009).
# Counter-ions that a name gives are not always drawn.
# Tested on: HCT116 cells
# Assay: HCT116 cytotoxic activity assay (Alamar Blue, 72 h)
# Format: cell-based
# Conditions: Homo sapiens, HCT-116, 72 h compound exposure, greater than 500 nM but less than or equal to 2 μM
# Procedure: Representative compounds of this invention were tested for cytotoxicity using the above-described assay procedure with the following results: […]
row,SMILES,IC50 [nM]
1,"Nc1nc(Nc2ccc(Oc3c(F)cncc3F)cc2)cc(-c2ccccc2)n1 [Example 5, N^4-{4-[(3,5-difluoropyridin-4-yl)oxy]phenyl}-6-phenylpyrimidine-2,4-diamine]",500 to 2000
2,"CNC(=O)c1cc(Oc2ccc(Nc3cc(-c4ccoc4)nc(N)n3)cc2)ccn1 [Example 10, 4-(4-{[2-amino-6-(3-furyl)pyrimidin-4-yl]amino}-phenoxy)-N-methylpyridine-2-carboxamide]",500 to 2000
3,"Nc1nc(Nc2ccc(Oc3ccc(Cl)cc3)cc2)cc(-c2ccccc2)n1 [Example 12, N^4-[4-(4-chlorophenoxy)phenyl]-6-phenylpyrimidine-2,4-diamine]",500 to 2000
4,"COCCNC(=O)c1cc(Oc2ccc(Nc3cc(-c4ccccc4)nc(N)n3)cc2)ccn1 [Example 23, 4-{4-[(2-amino-6-phenylpyrimidin-4-yl)amino]phenoxy}-N-(2-methoxyethyl)pyridine-2-carboxamide]",500 to 2000
5,"CN1CCN(C(=O)c2cc(Oc3ccc(Nc4cc(-c5ccccc5)nc(N)n4)cc3)ccn2)CC1 [Example 26, N4*-[4-({2-[(4-methylpiperazin-1-yl)carbonyl]pyridin-4-yl}oxy)phenyl]-6-phenylpyrimidine-2,4-diamine trifluoroacetate]",500 to 2000
6,"CCNc1nc(Nc2ccc(Oc3ccnc(C(F)(F)F)c3)cc2)cc(-c2cccc(OC)c2)n1 [Example 30, N^2-ethyl-6-(3-methoxy-phenyl)-N^4-[4-(2-trifluoromethyl-pyridin-4-yloxy)-phenyl]-pyrimidine-2,4-diamine]",500 to 2000
7,"Nc1nc(Nc2ccc(Oc3ccnc(OCCN4CCOCC4)c3)cc2)cc(-c2ccccc2)n1 [Example 32, N^4-{4-[2-(2-morpholin-4-yl-ethoxy)-pyridin-4-yloxy]-phenyl}-6-phenyl-pyrimidine-2,4-diamine]",500 to 2000
8,"Nc1nc(Nc2ccc(Oc3ccnc(CNC(=O)c4ccc(F)cc4)c3)cc2)cc(-c2ccccc2)n1 [Example 41, N-[(4-{4-[(2-amino-6-phenylpyrimidin-4-yl)amino]phenoxy}pyridin-2-yl)methyl]-4-fluorobenzamide]",500 to 2000
9,"CCN(CC)C(=O)NCc1cc(Oc2ccc(Nc3cc(-c4ccccc4)nc(N)n3)cc2)ccn1 [Example 42, N′-[(4-{4-[(2-amino-6-phenylpyrimidin-4-yl)amino]phenoxy}pyridin-2-yl)methyl]-N,N-diethylurea]",500 to 2000
10,"Nc1nc(Nc2ccc(Oc3ccnc(C4=NCCN4)c3)cc2)cc(-c2ccccc2)n1 [Example 47, N^4-{4-[2-(4,5-Dihydro-1H-imidazol-2-yl)pyridin-4-yloxy]phenyl}-6-phenylpyrimidine-2,4-diamine]",500 to 2000
11,"CCOC(=O)c1cc(Oc2cncc(Cl)c2)ccc1Nc1cc(-c2ccccc2)nc(N)n1 [Example 60, ethyl 2-[(2-amino-6-phenylpyrimidin-4-yl)amino]-5-[(5-chloropyridin-3-yl)oxy]benzoate]",500 to 2000

# Same assay, conditions: Homo sapiens, HCT-116, 72 h compound exposure, greater than 2 μM
row,SMILES,IC50 [nM]
1,COC[C@@H]1CCCN1c1ccnc(Oc2ccc(Nc3cc(-c4ccccc4)nc(N)n3)cc2)c1 [Example 43],> 2000
2,"CC(C)NCc1cc(Oc2ccc(Nc3cc(-c4ccccc4)nc(N)n3)cc2)ccn1 [Example 44, N^4-[4-({2-[(isopropylamino)methyl]pyridin-4-yl}oxy)phenyl]-6-phenylpyrimidine-2,4-diamine]",> 2000

# Same assay, conditions: Homo sapiens, HCT-116, 72 h compound exposure, less than or equal to 500 nM
row,SMILES,IC50 [nM]
1,"CCc1cc(Oc2ccc(Nc3cc(-c4ccccc4)nc(N)n3)cc2)ccn1 [Example 1, N^4-{4-[(2-ethylpyridin-4-yl)oxy]phenyl}-6-phenyl-pyrimidine-2,4-diamine]",≤ 500
2,"Cc1cc(Oc2ccc(Nc3cc(-c4ccccc4)nc(N)n3)cc2)ccn1 [Example 2, N^4-{4-[(2-methylpyridin-4-yl)oxy]phenyl}-6-phenylpyrimidine-2,4-diamine]",≤ 500
3,"NC(=O)c1cc(Oc2cccc(Nc3cc(-c4ccccc4)nc(N)n3)c2)ccn1 [Example 3, 4-{3-[(2-amino-6-phenylpyrimidin-4-yl)amino]phenoxy}pyridine-2-carboxamide]",≤ 500
4,"CNC(=O)c1cc(Oc2cccc(Nc3cc(-c4ccccc4)nc(N)n3)c2)ccn1 [Example 4, 4-{3-[(2-amino-6-phenylpyrimidin-4-yl)amino]phenoxy}-N-methylpyridine-2-carboxamide]",≤ 500
5,"N#Cc1cc(Oc2ccc(Nc3cc(-c4ccccc4)nc(N)n3)c(F)c2)ccn1 [Example 6, 4-{4-[(2-amino-6-phenylpyrimidin-4-yl)amino]-3-fluorophenoxy} pyridine-2-carbonitrile hydrochloride]",≤ 500
6,"Cc1cc(Oc2ccc(Nc3cc(-c4ccccc4)nc(N)n3)cc2F)ccn1 [Example 7, N^4-{3-fluoro-4-[(2-methylpyridin-4-yl)oxy]phenyl}-6-phenylpyrimidine-2,4-diamine]",≤ 500
7,"N#Cc1cc(Oc2ccc(Nc3cc(-c4ccccc4)nc(N)n3)cc2)ccn1 [Example 8, 4-{4-[(2-amino-6-phenylpyrimidin-4-yl)amino]phenoxy}pyridine-2-carbonitrile]",≤ 500
8,"CNC(=O)c1cc(Oc2cccc(Nc3cc(-c4ccoc4)nc(N)n3)c2)ccn1 [Example 9, 4-(3-{[2-amino-6-(3-furyl)pyrimidin-4-yl]amino}phenoxy)-N-methylpyridine-2-carboxamide]",≤ 500
9,"Nc1nc(Nc2ccc(Oc3ccc([N+](=O)[O-])cc3)cc2)cc(-c2ccccc2)n1 [Example 11, N^4-[4-(4-nitrophenoxy)phenyl]-6-phenylpyrimidine-2,4 diamine]",≤ 500
10,"COc1ccc(Oc2ccc(Nc3cc(-c4ccccc4)nc(N)n3)cc2)cc1 [Example 13, N^4-[4-(4-methoxyphenoxy)phenyl]-6-phenylpyrimidine-2,4-diamine]",≤ 500
11,"COC(=O)c1cc(Oc2ccc(Nc3cc(-c4ccccc4)nc(N)n3)cc2)ccn1 [Example 19, methyl 4-{4-[(2-amino-6-phenylpyrimidin-4-yl)amino]phenoxy}pyridine-2-carboxylate]",≤ 500
12,"Nc1nc(Nc2ccc(Oc3ccnc(C(=O)N4CCOCC4)c3)cc2)cc(-c2ccccc2)n1 [Example 21, N^4-(4-{[2-(morpholin-4-ylcarbonyl)pyridin-4-yl]oxy}phenyl)-6-phenylpyrimidine-2,4-diamine]",≤ 500
13,"Nc1nc(Nc2ccc(Cc3ccnc(C(F)(F)F)c3)cc2)cc(-c2ccccc2)n1 [Example 33, 6-phenyl-N^4-[4-(2-trifluoromethyl-pyridin-4-ylmethyl)-phenyl]-pyrimidin-2,4-diamine]",≤ 500
14,"Nc1nc(Nc2ccc(Cc3ccnc(Cl)c3)cc2)cc(-c2ccccc2)n1 [Example 34, N4*-{4-[(2-chloropyridin-4-yl)methyl]phenyl}-6-phenylpyrimidine-2,4-diamine]",≤ 500
15,"N#Cc1cc(Cc2ccc(Nc3cc(-c4ccccc4)nc(N)n3)cc2)ccn1 [Example 35, 4-[4-(2-amino-6-phenyl-pyrimidin-4-ylamino)-benzyl]-pyridine-2-carbonitrile]",≤ 500
16,"Nc1nc(Nc2ccc(Oc3ccnc(C(F)(F)F)c3)cc2)cc(-c2ccccc2)n1 [Example 37, 6-phenyl-N^4-(4-{[2-(trifluoromethyl)pyridin-4-yl]oxy}phenyl)pyrimidine-2,4-diamine]",≤ 500
17,"Nc1nc(Nc2ccc(Oc3cc[n+]([O-])c(C(F)(F)F)c3)cc2)cc(-c2ccccc2)n1 [Example 38, N^4-(4-{[1-oxido-2-(trifluoromethyl)pyridin-4-yl]oxy}phenyl)-6-phenylpyrimidine-2,4-diamine]",≤ 500
18,"CS(=O)(=O)NCc1cc(Oc2ccc(Nc3cc(-c4ccccc4)nc(N)n3)cc2)ccn1 [Example 40, N-[(4-{4-[(2-amino-6-phenylpyrimidin-4-yl)amino]-phenoxy}pyridin-2-yl)methyl]methanesulfonamide]",≤ 500
19,"Nc1nc(Nc2ccc(Oc3ccnc(C(=O)NCCO)c3)cc2)cc(-c2ccccc2)n1 [Example 45, 4-[4-(2-Amino-6-phenylpyrimidin-4-ylamino)phenoxy]pyridine-2-carboxylic acid (2-hydroxyethyl)amide]",≤ 500
20,"Nc1nc(Nc2ccc(Oc3ccnc(-c4nnn[nH]4)c3)cc2)cc(-c2ccccc2)n1 [Example 46, 6-phenyl-N^4-{4-[2-(1H-tetrazol-5-yl)pyridin-4-yloxy]phenyl}pyrimidine-2,4-diamine]",≤ 500
21,"Nc1nc(Nc2ccc(Oc3ccnc(Cl)c3)cc2)cc(-c2ccccc2)n1 [Example 48, N^4-[4-(2-Chloro-pyridin-4-yloxy)-phenyl]-6-phenyl-pyrimidine-2,4 diamine]",≤ 500
22,"COC[C@@H]1CCCN1c1cc(Oc2ccc(Nc3cc(-c4ccccc4)nc(N)n3)cc2)ccn1 [Example 49, (S)—N^4-{4-[2-(2-Methoxymethylpyrrolidin-1-yl)pyridin-4-yloxy]phenyl}-6-phenylpyrimidine-2,4-diamine]",≤ 500
23,"Nc1nc(Nc2ccc(Oc3ccnc(C(F)(F)F)c3)cc2)cc(-c2ccc(NC(=O)[C@@H](N)CO)cc2)n1 [Example 50, 2-amino-N-(4-{2-amino-6-[4-(2-trifluoromethylpyridin-4-yloxy)phenylamino]pyrimidin-4-yl}phenyl)-3-hydroxypropionamide]",≤ 500
24,"Nc1nc(Nc2ccc(Oc3ccnc(C(F)(F)F)c3)cc2)cc(-c2ccc(O)cc2)n1 [Example 51, 4-{2-amino-6-[(4-{[2-(trifluoromethyl)pyridin-4-yl]oxy}phenyl)amino]pyrimidin-4-yl}phenol]",≤ 500
25,"Nc1nc(Nc2ccc(Oc3ccnc(C(F)(F)F)c3)cc2)cc(-c2ccc(OS(N)(=O)=O)cc2)n1 [Example 52, sulfamic acid, 4-{2-amino-6-[4-(2-trifluoromethylpyridin-4-yloxy)phenylamino]pyrimidin-4-yl}phenyl ester]",≤ 500
26,"Nc1cc(Oc2ccc(Nc3cc(-c4ccccc4)nc(N)n3)cc2)ccn1 [Example 53, N^4-[4-(2-aminopyridin-4-yloxy)phenyl]-6-phenylpyrimidine-2,4-diamine]",≤ 500
27,"Nc1nc(Nc2ccc(Oc3ccnc(/C=C/CCO)c3)cc2)cc(-c2ccccc2)n1 [Example 58, (3E)-4-(4-{4-[(2-amino-6-phenylpyrimidin-4-yl)amino]phenoxy}pyridin-2-yl)but-3-en-1-ol]",≤ 500
